This note sets out measurements from patent publication US12275729B2 (Merck Sharp & Dohme LLC, priority 2017, dated 2025).

Chain of IDO1 (P14902 whole entry): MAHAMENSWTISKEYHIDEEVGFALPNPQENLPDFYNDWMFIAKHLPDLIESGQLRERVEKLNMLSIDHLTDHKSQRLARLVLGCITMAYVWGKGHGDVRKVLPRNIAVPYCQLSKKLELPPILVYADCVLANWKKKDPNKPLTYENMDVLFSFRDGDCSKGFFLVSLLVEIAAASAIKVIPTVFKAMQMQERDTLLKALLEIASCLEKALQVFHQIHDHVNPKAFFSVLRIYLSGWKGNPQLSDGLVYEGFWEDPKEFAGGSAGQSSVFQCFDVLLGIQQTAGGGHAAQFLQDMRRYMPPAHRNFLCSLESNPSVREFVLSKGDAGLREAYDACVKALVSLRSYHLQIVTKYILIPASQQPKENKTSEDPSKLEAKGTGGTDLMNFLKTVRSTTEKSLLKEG

The test addresses IDO1 (Homo sapiens, UniProt P14902). Put plainly: IDO1 Cellular Assay in HeLa Cells Stimulated with IFNγ. In kind it is cell-based. To be noted: about 48 hours, read-out: Hela IC50.
By IC50 is commonly meant the concentration that gives 50% inhibition. Consider `COC(=O)N1CCCc2cc(C3(C(=O)Nc4ccc(F)cn4)CCC3)ccc21` [Example 206, methyl 6-{1-[(5-fluoropyridin-2-yl)carbamoyl]cyclobutyl}-3,4-dihydroquinoline-1(2H)-carboxylate], for which the 50% inhibitory concentration (IC50) worked out at 1.5 nM.
As for `CC(NC(=O)c1ccc(F)cc1)c1ccc2c(n1)CCCN2C(=O)OCCF` (centres unmarked) [Example 210, 2-fluoroethyl 6-{1-[(4-fluorobenzene-1-carbonyl)amino]ethyl}-3,4-dihydro-1,5-naphthyridine-1(2H)-carboxylate], the figure is 5.5 nM.
As for `CCOC(=O)N1CCCc2cc(C3(C(=O)Nc4ccc(F)cn4)CCC3)ccc21` [Example 211, ethyl 6-{1-[(5-fluoropyridin-2-yl)carbamoyl]-cyclobutyl}-3,4-dihydroquinoline-1(2H)-carboxylate], the IC50 was 2.2 nM.
For the compound `O=C(NC1(c2ccc3c(n2)CCCN3C(=O)NC2CC2)CC1)c1ccc(F)cc1` [Example 214, N-cyclopropyl-6-{1-[(4-fluorobenzene-1-carbonyl)amino]cyclopropyl}-3,4-dihydro-1,5-naphthyridine-1(2H)-carboxamide], the half-maximal inhibitory concentration (IC50) stood at 159 nM.
On to `COC(=O)N1CCCc2nc(C3(NC(=O)c4ccc(F)cc4)CC3)ccc21` [Example 215, methyl 6-{1-[(4-fluorobenzene-1-carbonyl)amino]cyclopropyl}-3,4-dihydro-1,5-naphthyridine-1(2H)-carboxylate], for which the IC50 was 57 nM.
With `COC(=O)N1CCCc2nc(C3(C(=O)Nc4ccc(F)cc4)CCC3)ccc21` [Example 216, methyl 6-{1-[(4-fluorophenyl)carbamoyl]cyclobutyl}-3,4-dihydro-1,5-naphthyridine-1(2H)-carboxylate], the half-maximal inhibitory concentration (IC50) is 1.5 nM.
In the case of `CC(C)NC(=O)N1CCCc2nc([C@@H](C)C(=O)Nc3ccc(F)cc3)ccc21` [Example 217, 6-{(2R)-1-[(4-fluorophenyl)amino]-1-oxopropan-2-yl}-N-(propan-2-yl)-3,4-dihydro-1,5-naphthyridine-1(2H)-carboxamide], the IC50 was 24.6 nM.
As for `COC(=O)N1CCCc2nc(C3(C(=O)Nc4ccc(Cl)cc4)CCC3)ccc21` [Example 218, methyl 6-{1-[(4-chlorophenyl)carbamoyl]cyclobutyl}-3,4-dihydro-1,5-naphthyridine-1(2H)-carboxylate], the figure is 5.1 nM; as for `COC(=O)N1CCCc2nc(C3(NC(=O)c4ccc(Cl)cc4)CCC3)ccc21` [Example 219, methyl 6-{1-[(4-chlorobenzene-1-carbonyl)amino]cyclobutyl}-3,4-dihydro-1,5-naphthyridine-1(2H)-carboxylate], 9.9 nM; as for `COC(=O)N1CCCc2nc(C(C)C(=O)Nc3ccc(F)cc3)ccc21` (centres unmarked) [Example 220, methyl 6-{1-[(4-fluorophenyl)amino]-1-oxopropan-2-yl}-3,4-dihydro-1,5-naphthyridine-1(2H)-carboxylate], 1.9 nM.
With `COC(=O)N1CCCc2nc(C(C)C(=O)Nc3ccc(Cl)cc3)ccc21` (centres unmarked) [Example 221, methyl 6-{1-[(4-chlorophenyl)amino]-1-oxopropan-2-yl}-3,4-dihydro-1,5-naphthyridine-1(2H)-carboxylate], the IC50 was determined as 19.8 nM.
On to `COC(=O)N1CCCc2nc(C3(C(=O)Nc4ccc(F)cc4)CC3)ccc21` [Example 222, methyl 6-{1-[(4-fluorophenyl)carbamoyl]cyclopropyl}-3,4-dihydro-1,5-naphthyridine-1(2H)-carboxylate], for which the IC50 amounted to 21.8 nM.
Consider `COC(=O)N1CCCc2nc(C(C)C(=O)Nc3ccc(Cl)cc3)ccc21` (centres unmarked) [Example 223, methyl 6-{1-[(4-chlorophenyl)amino]-1-oxopropan-2-yl}-3,4-dihydro-1,5-naphthyridine-1(2H)-carboxylate], for which the half-maximal inhibitory concentration (IC50) was 10.8 nM.
Turning to `CC(NC(=O)c1ccc(F)cc1)c1ccc2c(n1)CCCN2CC1CC1` (centres unmarked) [Example 227, N-{1-[5-(cyclopropylmethyl)-5,6,7,8-tetrahydro-1,5-naphthyridin-2-yl]ethyl}-4-fluorobenzamide], the concentration for half-maximal inhibition (IC50) turned out to be 70.5 nM.
Take `CC(C(=O)Nc1ccc(F)cc1)c1ccc2c(c1)CCCN2C1CCCCC1` (centres unmarked) [Example 228, 2-(1-cyclohexyl-1,2,3,4-tetrahydroquinolin-6-yl)-N-(4-fluorophenyl)propanamide]: the IC50 stood at 4150 nM.
As for `CC(C(=O)Nc1ccc(F)cc1)c1ccc2c(c1)CCCN2C1CCOCC1` (centres unmarked) [Example 230, N-(4-fluorophenyl)-2-[1-(oxan-4-yl)-1,2,3,4-tetrahydroquinolin-6-yl]propanamide], the half-inhibitory concentration (IC50) stood at 5790 nM.
Turning to `CC(C(=O)Nc1ccc(F)cc1)c1ccc2c(c1)CCCN2C1COC1` (centres unmarked) [Example 231, N-(4-fluorophenyl)-2-[1-(oxetan-3-yl)-1,2,3,4-tetrahydroquinolin-6-yl]propanamide], the IC50 is 91.1 nM.
Consider `CC(NC(=O)c1ccc(F)cc1)c1ccc2c(n1)CCCN2c1cc(C(F)(F)F)ncn1` (centres unmarked) [Example 235, 4-fluoro-N-(1-{5-[6-(trifluoromethyl)pyrimidin-4-yl]-5,6,7,8-tetrahydro-1,5-naphthyridin-2-yl}ethyl)benzamide], for which the IC50 turned out to be 17 nM.
As to `Cc1cc(N2CCCc3nc(C4(NC(=O)c5ccc(F)cc5)CC4)ccc32)ccn1` [Example 243, 4-fluoro-N-{1-[5-(2-methylpyridin-4-yl)-5,6,7,8-tetrahydro-1,5-naphthyridin-2-yl]cyclopropyl}benzamide], the concentration for half-maximal inhibition (IC50) worked out at 14.3 nM.
As for `O=C(NC1(c2ccc3c(n2)CCCN3c2ccncn2)CC1)c1ccc(F)cc1` [Example 246, 4-fluoro-N-(1-(5-(pyrimidin-4-yl)-5,6,7,8-tetrahydro-1,5-naphthyridin-2-yl)cyclopropyl)benzamide], the figure is 9.3 nM; as for `O=C(NC1(c2ccc3c(n2)CCCN3c2ccccn2)CC1)c1ccc(F)cc1` [Example 247, 4-fluoro-N-(1-(5-(pyridin-2-yl)-5,6,7,8-tetrahydro-1,5-naphthyridin-2-yl)cyclopropyl)benzamide], 13.9 nM; as for `O=C(Nc1ccc(F)cc1)C(c1ccc2c(n1)CCCN2C(=O)C1CC1)C1CC1` (centres unmarked) [Example 260, 2-(5-(cyclopropanecarbonyl)-5,6,7,8-tetrahydro-1,5-naphthyridin-2-yl)-2-cyclopropyl-N-(4-fluorophenyl)acetamide], 34 nM.
Turning to `CC(C)C(C(=O)Nc1ccc(F)cc1)c1ccc2c(n1)CCCN2C(=O)C1CC1` (centres unmarked) [Example 263, 2-(5-(cyclopropanecarbonyl)-5,6,7,8-tetrahydro-1,5-naphthyridin-2-yl)-N-(4-fluorophenyl)-3-methylbutanamide], the half-inhibitory concentration (IC50) was 34.9 nM.
Regarding `CC(C)C(C(=O)Nc1ccc(F)cc1)c1ccc2c(n1)CCCN2C(=O)C1CC1` (centres unmarked) [Example 264, 2-(5-(cyclopropanecarbonyl)-5,6,7,8-tetrahydro-1,5-naphthyridin-2-yl)-N-(4-fluorophenyl)-3-methylbutanamide], the IC50 came to 30.9 nM.
On to `CC(C)C(C(=O)Nc1ccc(F)cc1)c1ccc2c(n1)CCCN2C(=O)C1CC1` (centres unmarked) [Example 265, 2-(5-(cyclopropanecarbonyl)-5,6,7,8-tetrahydro-1,5-naphthyridin-2-yl)-N-(4-fluorophenyl)-3-methylbutanamide], for which the IC50 worked out at 15.7 nM.
As for `O=C(c1cccc(Cl)c1)N1CCCc2nc(C3(C(=O)Nc4ccc(F)cc4)COC3)ccc21` [Example 267, 3-(5-(3-chlorobenzoyl)-5,6,7,8-tetrahydro-1,5-naphthyridin-2-yl)-N-(4-fluorophenyl)oxetane-3-carboxamide], the figure is 2.2 nM; as for `O=C(OC1CC1)N1CCc2nc(C3(C(=O)Nc4ccc(F)cc4)CCC3)ccc21` [Example 269, cyclopropyl 5-(1-((4-fluorophenyl)carbamoyl)cyclobutyl) 2,3-dihydro-1H-pyrrolo[3,2-b]pyridine-1-carboxylate], 2.2 nM; as for `O=C(Nc1ccc(F)cc1)C1(c2ccc3c(n2)CCN3c2ccccn2)CCC1` [Example 271, N-(4-fluorophenyl)-1-[1-(pyridin-2-yl)-2,3-dihydro-1H-pyrrolo[3,2-b]pyridin-5-yl]cyclobutane-1-carboxamide], 10.9 nM.
Consider `CCN(C(=O)N1CCc2cc(C3(C(=O)Nc4ccc(Cl)cc4)CCC3)ccc21)C(C)C` [Example 274, 5-{1-[(4-chlorophenyl)carbamoyl]cyclobutyl}-N-ethyl-N-(propan-2-yl)-2,3-dihydro-1H-indole-1-carboxamide], for which the IC50 came out at 3.3 nM.
For the compound `CC(NC(=O)c1ccc(F)cc1)c1ccc2c(n1)CCCN2C(=O)c1ccccn1` (centres unmarked) [Example 280, 2-(1-(4-fluorobenzamido)ethyl)-5-picolinoyl-5,6,7,8-tetrahydro-1,5-naphthyridin-1-ium 2,2,2-trifluoroacetate], the concentration for half-maximal inhibition (IC50) worked out at 7 nM.
As to `Cc1cccc(C(=O)N2CCCc3nc(C(C)NC(=O)c4ccc(F)cc4)ccc32)n1` (centres unmarked) [Example 281, 2-(1-(4-fluorobenzamido)ethyl)-5-(6-methylpicolinoyl)-5,6,7,8-tetrahydro-1,5-naphthyridin-1-ium 2,2,2-trifluoroacetate], the IC50 worked out at 3 nM.
On to `CC(NC(=O)c1ccc(F)cc1)c1ccc2c(n1)CCCN2C(=O)c1cc(F)ccn1` (centres unmarked) [Example 282, 2-(1-(4-fluorobenzamido)ethyl)-5-(4-fluoropicolinoyl)-5,6,7,8-tetrahydro-1,5-naphthyridin-1-ium 2,2,2-trifluoroacetate], for which the IC50 came to 2.8 nM.
As for `CC(NC(=O)c1ccc(F)cc1)c1ccc2c(n1)CCCN2C(=O)c1ncccc1F` (centres unmarked) [Example 283, 2-(1-(4-fluorobenzamido)ethyl)-5-(3-fluoropicolinoyl)-5,6,7,8-tetrahydro-1,5-naphthyridin-1-ium 2,2,2-trifluoroacetate], the figure is 2.2 nM; as for `CC(NC(=O)c1ccc(F)cc1)c1ccc2c(n1)CCCN2C(=O)c1cccc(C(F)(F)F)c1` (centres unmarked) [Example 284, 2-(1-(4-fluorobenzamido)ethyl)-5-(3-(trifluoromethyl)benzoyl)-5,6,7,8-tetrahydro-1,5-naphthyridin-1-ium 2,2,2-trifluoroacetate], 1.2 nM; as for `CC(C(=O)Nc1ccc(F)cc1)c1ccc2c(n1)CCCN2C(=O)c1cccc(S(C)(=O)=O)c1` (centres unmarked) [Example 285, N-(4-fluorophenyl)-2-(5-(3-(methylsulfonyl)benzoyl)-5,6,7,8-tetrahydro-1,5-naphthyridin-2-yl)propanamide], 4000 nM.
